Assay [1] has as its system phosphorylated ERK1/2 (P-ERK1/2). Briefly: Western Blotting of phosphorylated ERK1/2 in K562 cells. It is filed as cell-based, human. The note with it: leukemia cells K562, 10 μmol/L, 24 hours. On the procedure:
(§1) The inhibition of the STAT3 and ERK signal pathways achieved by Mogroside I E1, Mogroside II A2 and mogrol was detected by Western Blotting, specifically:
Group 3: leukemia cells K562 (1×10^6 cells/well) were inoculated into a 6-well culture plate for staying overnight, and 0 and 10 μmol/L of Mogroside I E1 Mogroside II A2 and mogrol were added respectively, and the culture was continued for 24 hours;
(§2) After the termination of the cell culture, the culture solution was removed, and the residue was washed with PBS (0.01 mol/L, pH 7.4), and then a cell lysis solution containing protease inhibitors was added at an amount of 50 μl/well, and the mixture was placed in an ice bath for lysis at 4° C. for 30 min and then centrifuged at 14000 r/min for 10 min, and then total proteins were obtained from the supernatant;
(§3) The protein concentrations were measured with bovine serum albumin (BSA) as the standard. 50 μg of the total proteins was separated by polyacrylamide gel electrophoresis with 12% […], electrophoretically transferred to a PVDF membrane (polyvinylidene fluoride membrane), and blocked for 1 h by 5% of skim milk (containing 0.1% of Tween 20), and then antibodies p-STAT3 (Tyr705) and p-Erk1/2 as well as β-actin were added, and the primary antibody was incubated at 4° C. overnight (β-actin was used as reference in loading amount); the membrane was washed for 3 times with TBS-T, 5 min each time; secondary antibody marked by horseradish peroxidase (HRP) was added for incubation at room temperature for 1 h, the membrane was washed for 3 times with a wash solution (TBS-T), 10 min each time, and then ECL was added for incubation in dark for 5 min, and subsequently, a fluorescence imaging analyzer was used for image development and scanning analysis, and the results of Western Blotting detection are shown in FIGS. 4 to 6.

Assay [2] has as its system cycle regulatory protein P21. The assay can be described thus: Western Blotting of P21 in U937 cells. The note with it: 10 μmol/L, 24 h. It is filed as cell-based. On the procedure: (§4) The STAT3 and ERK signal pathways can regulate cyclins and apoptosis genes, and in order to verify the effects of […] and mogrol, the expression status of downstream genes of STAT3 and ERK was detected, wherein the influences of the three mogrosides and analogs thereof, i.e. Mogrol I E1, Mogrol II A2 and mogrol, on Bcl-2 and P21 proteins in the histiocytic lymphoma U937 cells, human melanoma A875 cells and leukemia cells K562 were determined, respectively.
(§5) The regulation of Bcl-2 and P21 proteins by mogrosides and analog thereof to the was detected by Western Blotting, specifically: histiocytic lymphoma U937 cells, human melanoma A875 cells and leukemia cells K562 (1×10^6 cells/well) were inoculated into a 6-well culture plate overnight, and 0 and 10 μmol/L of the mogrosides and analogs thereof were added respectively, and kept cultured for 24 h. […]
(§6) The protein concentration was measured with bovine serum albumin (BSA) as the standard. 50 μg of the total proteins were separated by polyacrylamide gel electrophoresis with 12% SDS, and electrophoretically transferred to a PVDF membrane (polyvinylidene fluoride membrane), and blocked for 1 h by 5% of skim milk (containing 0.1% of Tween 20), and then antibodies P21, Bcl-2 and β-actin were added, wherein the primary antibody was incubated at 4° C. overnight (β-actin was used as reference loading amount); the membrane was washed for 3 times with TBS-T, 5 min each time; secondary antibody marked by horseradish peroxidase (HRP) was added for incubation at room temperature for 1 h, the membrane was washed with rinse solution (TBS-T) for 3 times, 10 min each time, and then ECL was added for incubation in dark for 5 min, and subsequently, a fluorescence imaging analyzer was used for image development and scanning analysis.

Assay [3] deals with human melanoma A875 cells. The assay can be described thus: Cell morphology, Hoechst 33258 staining, fluorescence microscope. The note with it: A875 melanoma cells, 10, 100 and 250 μmol/L, 24-hour culture. The format is cell-based. The protocol: (§7) Lymphoma U937 cells, human melanoma A875 cells and leukemia cells K562 in logarithmic growth phase were selected, and the concentrations of the cells were adjusted to 1×10^4 cells/mL, and the cells were transferred to a 6-well plate for culture, and after the 24-hour culture, drugs were added to achieve final concentrations of 0, 10, 100 and 250 μmol/L, wherein only whole medium was added to the negative control groups, while Mogroside II A2 was added to the positive control groups, after 24-hour culture, waste solution was removed, and fixing solution was added to each well for fixing for 25 min, and then the resulting mixture was washed twice, 3 min each time, and then Hoechst 33258 staining solution was added for staining in dark at room temperature for 30 min, and the cell morphology variation was observed using a fluorescence microscope.

Assay [4] has as its system lymphoma U937 cells. The description is as above. The note with it: lymphoma U937 cells, 10, 100 and 250 μmol/L, 24-hour culture. The format is cell-based. On the procedure: as §7
Assay [5] relates to phosphorylated ERK1/2 (P-ERK1/2). The assay can be described thus: Western Blotting of phosphorylated ERK1/2 in U937 cells. The format is cell-based. As to conditions: 10 μmol/L, 24 hours. On the procedure:
as §1
Group 1: histiocytic lymphoma U937 cells (1×10^6 cells/well) were inoculated into a 6-well culture plate for staying overnight, and 0 and 10 μmol/L of Mogroside I E1, Mogroside II A2 and mogrol were added respectively, and the culture was continued for 24 hours;
as §2, §3

Assay [6] has as its system anti-apoptotic protein Bcl-2. Briefly: Western Blotting of Bcl-2 in U937 cells. The format is cell-based. As to conditions: 10 μmol/L, 24 h. The protocol:
as §4, §5, §6

Assay [7] concerns leukemia cells K562. Briefly: MTT colorimetric experiment, cell growth inhibition. The format is cell-based, human. The note with it: leukemia cells K562, 0.1, 1, 10, 100, 200 and 250 μmol/L, MTT after 24 h. The protocol:
(§8) MTT colorimetric experiments were performed after 24 h, respectively: prior to the finish of each experiment, 15 μl of MTT solution in a concentration of 5 mg/ml was added to each well, and the culture was continued in dark at 37° C. for 4 h, then 150 μl of DMSO was added to each well and oscillating in a shaker for 10 min, and then the residue was placed in a microplate reader to detect the optical density OD) at 490 nm, and the inhibition rate was calculated according to the following formula: cell growth inhibition rate (control group OD490—test group OD490)/control group OD490×100%.

Assay [8] relates to leukemia cells K562. Briefly: Cell morphology, Hoechst 33258 staining, fluorescence microscope. It is filed as cell-based, human. The note with it: leukemia cells K562, 10, 100 and 250 μmol/L, 24-hour culture. On the procedure:
as §7

Assay [9] relates to human melanoma A875 cells. Briefly: MTT colorimetric experiment, cell growth inhibition. As to conditions: melanoma A875 cells, 0.1, 1, 10, 100, 200 and 250 μmol/L, MTT after 24 h. It is filed as cell-based. The protocol: as §8
For assay [10], the system named is lymphoma U937 cells. The description is as above. The format is cell-based. As to conditions: U937 cells, 0.1, 1, 10, 100, 200 and 250 μmol/L, MTT after 24 h. On the procedure:
as §8

Results on one compound are retold here after patent US10617734B2, “STAT3 and ERK signal pathway inhibitor comprising mogrosides and analogs thereof” (BEIJING UNIVERSITY OF AGRICULTURE, priority 2014, dated 2020).

With `C[C@H](CC[C@@H](O)C(C)(C)O)[C@H]1CC[C@@]2(C)[C@@H]3CC=C4[C@@H](CC[C@H](O)C4(C)C)[C@]3(C)[C@H](O)C[C@]12C` [mogrol], the “expression level of phosphorylated ERK1/2 (P-ERK1/2)” value in assay [1] and in assay [5] was “significantly decreased” throughout. In addition, the “expression of cycle regulatory protein P21” value in [2] was “significantly up-regulated”. For the same compound, the “cell morphology variation (Hoechst 33258)” value (in [3]; in the assay with lymphoma U937 cells [4]; in the assay with leukemia cells K562 [8]) was “identical to the results of Mogroside II A2” throughout. For the same compound, the “expression of anti-apoptotic protein Bcl-2” value in assay [6] is on record as “significantly down-regulated”. Besides, the “cell growth inhibition rate” value (with leukemia cells K562 [7]; in assay [9]; in the assay on lymphoma U937 cells [10]) was “inhibitory effect on the proliferation” each time.
